Reference: patent publication US9556165B2 (priority 2012, dated 2017)
In brackets after ≈: the same amount, converted by molar mass.

Experiments:
Experiment in all cases: MIC determination, broth microdilution (CLSI)
Type in all cases: cell-based
[1] = test system: E. coli ATCC25922; conditions: for MIC: Escherichia coli, ATCC25922, strain 1
[2] = test system: K. pneumoniae 60; conditions: for MIC: Klebsiella pneumoniae, 60, strain 2
[3] = test system: E. cloacae 34654; conditions: for MIC: Enterobacter cloacae, 34654, strain 3
[4] = test system: C. freundii K21/3034; conditions: for MIC: Citrobacter freundii, K21/3034, strain 4
[5] = test system: M. morganii 126/3048; conditions: for MIC: Morganella morganii, 126/3048, strain 5
[6] = test system: P. aeruginosa PAO1; conditions: for MIC: Pseudomonas aeruginosa, PAO1, strain 6
[7] = test system: P. aeruginosa 2297 (AmpC wt); conditions: for MIC: Pseudomonas aeruginosa, strain 7
[8] = test system: P. aeruginosa 2297-con (AmpC derepressed); conditions: for MIC: Pseudomonas aeruginosa, read-out: strain 8 MIC, strain 8
[9] = test system: A. baumannii ATCC15308; conditions: for MIC: Acinetobacter baumannii, ATCC15308, strain 9
[10] = test system: M. catarrhalis ICB489; conditions: for MIC: Moraxella catarrhalis, ICB489, strain 12
[11] = test system: E. coli J62; conditions: for MIC: Escherichia coli, J62, strain 17, read-out: strain 17 MIC
[12] = test system: E. coli J62-TEM-3; conditions: for MIC: Escherichia coli, J62TEM3, read-out: strain 18 MIC, strain 18
[13] = test system: strain 19
[14] = test system: strain 20
[15] = test system: strain 21
[16] = test system: S. maltophilia ICB7569; conditions: Stenotrophomonas maltophilia, ICB7569, strain 10
[17] = test system: S. pneumoniae 113; conditions: Streptococcus pneumoniae, 113, strain 14; read-out: strain 14 MIC
[18] = test system: S. aureus 133; conditions: Staphylococcus aureus, 133, strain 11; read-out: strain 11 MIC
[19] = test system: H. influenzae ATCC 49247; conditions: Haemophilus influenzae, ATCC49247, strain 13; read-out: strain 13 MIC
[20] = test system: B. fragilis 6688; conditions: Bacteroides fragilis, 6688, strain 15; read-out: strain 15 MIC

SMILES	MIC [1]	MIC [2]	MIC [3]	MIC [4]	MIC [5]	MIC [6]	MIC [7]	MIC [8]	MIC [9]	MIC [16]	MIC [17]	MIC [11]	MIC [12]	MIC [13]	MIC [14]	MIC [15]	MIC [18]	MIC [10]	MIC [19]	MIC [20]	also measured
C[C@H]1[C@H](NC(=O)/C(=N\OC(COc2ccc(C(=N)N)cc2)C(=O)O)c2csc(N)n2)C(=O)N1S(=O)(=O)O (mixture of isomers) [Example 26B, (2S and 2R)-2-({[(1Z)-1-(2-Amino-1,3-thiazol-4-yl)-2-{[(2S,3S)-2-methyl-4-oxo-1-sulfoazetidin-3-yl]amino}-2-oxoethylidene]amino}oxy)-3-(4-carbamidinoyl-phenoxy)propanoic acid]																					strain 1 MIC ([1]; strain 1): 2 µg/mL; strain 2 MIC ([2]; strain 2): 0.5 µg/mL; strain 3 MIC ([3]; strain 3): 1 µg/mL; strain 4 MIC ([4]; strain 4): 2 µg/mL; strain 5 MIC ([5]; strain 5): 0.5 µg/mL; strain 6 MIC ([6]; strain 6): 4 µg/mL; strain 7 MIC [7]: 8 µg/mL; strain 8 MIC ([8]; strain 8): 32 µg/mL; strain 9 MIC ([9]; strain 9): 16 µg/mL; strain 12 MIC ([10]; strain 12): 2 µg/mL; strain 17 MIC ([11]; strain 17): 2 µg/mL; strain 18 MIC ([12]; strain 18): 32 µg/mL; strain 19 MIC [13]: 1 µg/mL; strain 20 MIC [14]: 2 µg/mL; strain 21 MIC [15]: 2 µg/mL
CC1(C)[C@H](NC(=O)/C(=N\OCCOc2ccc(C(=N)N)c(O)c2)c2csc(N)n2)C(=O)N1OS(=O)(=O)O [Example 1, (2Z)-2-(2-Amino-1,3-thiazol-4-yl)-2-{[2-(4-carbamimidoyl-3-hydroxyphenoxy)ethoxy]imino}-N-[(3S)-2,2-dimethyl-4-oxo-1-(sulfooxy)azetidin-3-yl]ethanamide]	0.25 µg/mL (≈ 0.448 µM)	0.25 µg/mL (≈ 0.448 µM)	0.5 µg/mL (≈ 0.897 µM)	0.5 µg/mL (≈ 0.897 µM)	0.125 µg/mL (≈ 0.224 µM)	4 µg/mL (≈ 7.17 µM)	8 µg/mL (≈ 14.3 µM)	4 µg/mL (≈ 7.17 µM)	8 µg/mL (≈ 14.3 µM)	8 µg/mL (≈ 14.3 µM)	16 µg/mL (≈ 28.7 µM)	0.25 µg/mL (≈ 0.448 µM)	16 µg/mL (≈ 28.7 µM)	0.25 µg/mL (≈ 0.448 µM)	0.25 µg/mL (≈ 0.448 µM)	0.25 µg/mL (≈ 0.448 µM)					
C[C@H]1[C@H](NC(=O)/C(=N\OCCOc2ccc(C(=N)N)nc2)c2csc(N)n2)C(=O)N1S(=O)(=O)O [Example 3, (2S,3S)-3-{[(2Z)-2-(2-Amino-1,3-thiazol-4-yl)-2-({2-[(6-carbamimidoylpyridin-3-yl)oxy]ethoxy}imino)acetyl]amino}-2-methyl-4-oxoazetidine-1-sulfonic acid]	0.125 µg/mL (≈ 0.244 µM)	≤ 0.063 µg/mL	0.125 µg/mL (≈ 0.244 µM)	≤ 0.063 µg/mL	0.125 µg/mL (≈ 0.244 µM)	2 µg/mL (≈ 3.9 µM)	4 µg/mL (≈ 7.8 µM)	16 µg/mL (≈ 31.2 µM)	1 µg/mL (≈ 1.95 µM)		8 µg/mL (≈ 15.6 µM)	0.25 µg/mL (≈ 0.488 µM)	16 µg/mL (≈ 31.2 µM)	0.125 µg/mL (≈ 0.244 µM)	0.125 µg/mL (≈ 0.244 µM)	0.25 µg/mL (≈ 0.488 µM)	≤ 0.063 µg/mL	0.125 µg/mL (≈ 0.244 µM)	0.5 µg/mL (≈ 0.976 µM)	8 µg/mL (≈ 15.6 µM)	
C[C@H]1[C@H](NC(=O)/C(=N\OCCOc2ccc(C(=N)N)cn2)c2csc(N)n2)C(=O)N1S(=O)(=O)O [Example 5, (2S,3S)-3-{[(2Z)-2-(2-Amino-1,3-thiazol-4-yl)-2-({2-[(5-carbamimidoylpyridin-2-yl)oxy]-ethoxy}imino)acetyl]amino}-2-methyl-4-oxoazetidine-1-sulfonic acid]	0.25 µg/mL (≈ 0.488 µM)	≤ 0.063 µg/mL	0.125 µg/mL (≈ 0.244 µM)	0.25 µg/mL (≈ 0.488 µM)	0.125 µg/mL (≈ 0.244 µM)	4 µg/mL (≈ 7.8 µM)	4 µg/mL (≈ 7.8 µM)	32 µg/mL (≈ 62.4 µM)	1 µg/mL (≈ 1.95 µM)		4 µg/mL (≈ 7.8 µM)	0.5 µg/mL (≈ 0.976 µM)	16 µg/mL (≈ 31.2 µM)	0.25 µg/mL (≈ 0.488 µM)	0.25 µg/mL (≈ 0.488 µM)	0.25 µg/mL (≈ 0.488 µM)	0.125 µg/mL (≈ 0.244 µM)	0.25 µg/mL (≈ 0.488 µM)	0.5 µg/mL (≈ 0.976 µM)	8 µg/mL (≈ 15.6 µM)	
C[C@H]1[C@H](NC(=O)/C(=N\OCCSc2ccc(C(=N)N)cc2)c2csc(N)n2)C(=O)N1S(=O)(=O)O [Example 6, (2S,3S)-3-{[(2Z)-2-(2-Amino-1,3-thiazol-4-yl)-2-({2-[(4-carbamimidoylphenyl)sulfanyl]ethoxy}imino)acetyl]amino}-2-methyl-4-oxoazetidine-1-sulfonic acid]	0.125 µg/mL (≈ 0.237 µM)	0.25 µg/mL (≈ 0.474 µM)	0.125 µg/mL (≈ 0.237 µM)	≤ 0.125 µg/mL	≤ 0.125 µg/mL	4 µg/mL (≈ 7.58 µM)	8 µg/mL (≈ 15.2 µM)	16 µg/mL (≈ 30.3 µM)	1 µg/mL (≈ 1.9 µM)	32 µg/mL (≈ 60.7 µM)	4 µg/mL (≈ 7.58 µM)	0.25 µg/mL (≈ 0.474 µM)	16 µg/mL (≈ 30.3 µM)	0.25 µg/mL (≈ 0.474 µM)	0.25 µg/mL (≈ 0.474 µM)	0.25 µg/mL (≈ 0.474 µM)					
C[C@H]1[C@H](NC(=O)/C(=N\OCCNc2ccc(C(=N)N)cc2)c2csc(N)n2)C(=O)N1S(=O)(=O)O [Example 8, (2S,3S)-3-{[(2Z)-2-(2-Amino-1,3-thiazol-4-yl)-2-({2-[(4-carbamimidoylphenyl)amino]ethoxy}imino)acetyl]amino}-2-methyl-4-oxoazetidine-1-sulfonic acid]	1 µg/mL (≈ 1.96 µM)	0.5 µg/mL (≈ 0.979 µM)	2 µg/mL (≈ 3.92 µM)	0.5 µg/mL (≈ 0.979 µM)	0.25 µg/mL (≈ 0.49 µM)	8 µg/mL (≈ 15.7 µM)	32 µg/mL (≈ 62.7 µM)	32 µg/mL (≈ 62.7 µM)	4 µg/mL (≈ 7.83 µM)		8 µg/mL (≈ 15.7 µM)	4 µg/mL (≈ 7.83 µM)		2 µg/mL (≈ 3.92 µM)	4 µg/mL (≈ 7.83 µM)	4 µg/mL (≈ 7.83 µM)	0.25 µg/mL (≈ 0.49 µM)	0.5 µg/mL (≈ 0.979 µM)	1 µg/mL (≈ 1.96 µM)	16 µg/mL (≈ 31.3 µM)	
C[C@H]1[C@H](NC(=O)/C(=N\OCCOc2ccc(C(=N)NO)cc2)c2csc(N)n2)C(=O)N1S(=O)(=O)O [Example 21, (2S,3S)-3-{[(2Z)-2-(2-Amino-1,3-thiazol-4-yl)-2-({2-[4-(N-hydroxycarbamimidoyl)phenoxy]ethoxy}imino)acetyl]amino}-2-methyl-4-oxoazetidine-1-sulfonic acid]	1 µg/mL (≈ 1.9 µM)	0.25 µg/mL (≈ 0.474 µM)	1 µg/mL (≈ 1.9 µM)	0.25 µg/mL (≈ 0.474 µM)	0.5 µg/mL (≈ 0.948 µM)	16 µg/mL (≈ 30.3 µM)	16 µg/mL (≈ 30.3 µM)		8 µg/mL (≈ 15.2 µM)		32 µg/mL (≈ 60.7 µM)	2 µg/mL (≈ 3.79 µM)	16 µg/mL (≈ 30.3 µM)	0.5 µg/mL (≈ 0.948 µM)	1 µg/mL (≈ 1.9 µM)	1 µg/mL (≈ 1.9 µM)	0.5 µg/mL (≈ 0.948 µM)	0.25 µg/mL (≈ 0.474 µM)	1 µg/mL (≈ 1.9 µM)	32 µg/mL (≈ 60.7 µM)	
CC1(C)[C@H](NC(=O)/C(=N\OCCOc2ccc(C(=N)N)nn2)c2csc(N)n2)C(=O)N1OS(=O)(=O)O [Example 29, (2Z)-2-(2-Amino-1,3-thiazol-4-yl)-2-({2-[(6-carbamimidoylpyridazin-3-yl)oxy]-ethoxy}imino)-N-[(3S)-2,2-dimethyl-4-oxo-1-(sulfooxy)azetidin-3-yl]ethanamide]	0.25 µg/mL (≈ 0.46 µM)	0.25 µg/mL (≈ 0.46 µM)	0.5 µg/mL (≈ 0.92 µM)	0.25 µg/mL (≈ 0.46 µM)	0.25 µg/mL (≈ 0.46 µM)	8 µg/mL (≈ 14.7 µM)	16 µg/mL (≈ 29.4 µM)	8 µg/mL (≈ 14.7 µM)	2 µg/mL (≈ 3.68 µM)	8 µg/mL (≈ 14.7 µM)	4 µg/mL (≈ 7.36 µM)	0.5 µg/mL (≈ 0.92 µM)	8 µg/mL (≈ 14.7 µM)	0.5 µg/mL (≈ 0.92 µM)	0.5 µg/mL (≈ 0.92 µM)	0.5 µg/mL (≈ 0.92 µM)					
C[C@H]1[C@H](NC(=O)/C(=N\OCc2cc(C(=N)N)cs2)c2csc(N)n2)C(=O)N1S(=O)(=O)O [Example 32, (2S,3S)-3-{[(2Z)-2-(2-Amino-1,3-thiazol-4-yl)-2-(2-[(4-carbamimidoylthiophen-2-yl)methoxy]imino)acetyl]amino}-2-methyl-4-oxoazetidine-1-sulfonic acid]	1 µg/mL (≈ 2.05 µM)		0.5 µg/mL (≈ 1.03 µM)	0.5 µg/mL (≈ 1.03 µM)	0.5 µg/mL (≈ 1.03 µM)	16 µg/mL (≈ 32.8 µM)	32 µg/mL (≈ 65.6 µM)		2 µg/mL (≈ 4.1 µM)		8 µg/mL (≈ 16.4 µM)	2 µg/mL (≈ 4.1 µM)	32 µg/mL (≈ 65.6 µM)	1 µg/mL (≈ 2.05 µM)	2 µg/mL (≈ 4.1 µM)	1 µg/mL (≈ 2.05 µM)	≤ 0.063 µg/mL	0.75 µg/mL (≈ 1.54 µM)	0.5 µg/mL (≈ 1.03 µM)	3 µg/mL (≈ 6.15 µM)	
C[C@H]1[C@H](NC(=O)/C(=N\OCCCOc2ccc(C(=N)N)cc2)c2csc(N)n2)C(=O)N1S(=O)(=O)O [Example 37, (2S,3S)-3-{[(2Z)-2-(2-Amino-1,3-thiazol-4-yl)-2-[{3-(4-carbamimidoylphenoxy)propoxy]imino}acetyl]amino}-2-methyl-4-oxoazetidine-1-sulfonic acid]	2 µg/mL (≈ 3.81 µM)	2 µg/mL (≈ 3.81 µM)	2 µg/mL (≈ 3.81 µM)	2 µg/mL (≈ 3.81 µM)	1 µg/mL (≈ 1.9 µM)	8 µg/mL (≈ 15.2 µM)	8 µg/mL (≈ 15.2 µM)		4 µg/mL (≈ 7.61 µM)		4 µg/mL (≈ 7.61 µM)	4 µg/mL (≈ 7.61 µM)		2 µg/mL (≈ 3.81 µM)	2 µg/mL (≈ 3.81 µM)	2 µg/mL (≈ 3.81 µM)	1 µg/mL (≈ 1.9 µM)	0.5 µg/mL (≈ 0.951 µM)	1 µg/mL (≈ 1.9 µM)	16 µg/mL (≈ 30.4 µM)	
